Converted amounts (≈) assume the structure as drawn. Square brackets hold non-standard residues; d marks the D form. Peptide text beside a SMILES is read from it. * marks the point of attachment. X4 = CC(C)C[C@@H](C[N+]1=C2CCCN2CCC1)N*; Pip = O=C(O)[C@@H]1CCCCN1; Iva = CC[C@](C)(N)C(=O)O; Aib = CC(C)(N)C(=O)O; βAla = NCCC(=O)O

Series [1] can be described thus: Anticancer activity against rat HR-3Y1-2 cells assessed as reduction in cell viability incubated for 3 days by MTT assay. Format: functional, cell-based. To be noted: HR-3Y1-2, 72 h. In general terms: Tetrazolium assays rely on reduction of a dye to a coloured formazan, in cell work by metabolically active cells.
Series [2] is described as follows: Anticancer activity against rat SR-3Y1-2 cells assessed as reduction in cell viability incubated for 3 days by MTT assay. To be noted: SR-3Y1-2, 72 h. Format: functional, cell-based.
Series [3] can be described thus: Anticancer activity against rat E1A-3Y1-2 cells assessed as reduction in cell viability incubated for 3 days by MTT assay. It is filed as functional, cell-based. To be noted: E1A-3Y1-2, 72 h.
Series [4] relates to SK-OV-3. Briefly: Anticancer activity against human SK-OV-3 cells assessed as reduction in cell viability incubated for 72 hrs by WST-8 assay. It is filed as functional, cell-based. To be noted: SK-OV-3, 72 h.
Series [5] can be described thus: Anticancer activity against rat Ad12-3Y1-Z11 cells assessed as reduction in cell viability incubated for 3 days by MTT assay. Format: functional, cell-based. The settings on record: Ad12-3Y1-Z11, 72 h.
A short description of series [6]: Anticancer activity against rat SV-3Y1-C66 cells assessed as reduction in cell viability incubated for 3 days by MTT assay. It is filed as functional, cell-based. To be noted: SV-3Y1-C66, 72 h.
A short description of series [7]: Anticancer activity against rat Ad12-3Y1-Z13 cells assessed as reduction in cell viability incubated for 3 days by MTT assay. To be noted: Ad12-3Y1-Z13, 72 h. It is filed as functional, cell-based.
Series [8] is described as follows: Anticancer activity against rat HR-3Y1-3 cells assessed as reduction in cell viability incubated for 3 days by MTT assay. It is filed as functional, cell-based. To be noted: HR-3Y1-3, 72 h.
A short description of series [9]: Anticancer activity against rat E1A-3Y1-3 cells assessed as reduction in cell viability incubated for 3 days by MTT assay. To be noted: E1A-3Y1-3, 72 h. Format: functional, cell-based.
Series [10] in a line: Anticancer activity against rat Ad12-3Y1-Z19 cells assessed as reduction in cell viability incubated for 3 days by MTT assay. The settings on record: Ad12-3Y1-Z19, 72 h. Format: functional, cell-based.
The test system of the next series is Jurkat. The series can be described thus: Anticancer activity against human Jurkat cells assessed as reduction in cell viability incubated for 72 hrs by WST-8 assay. Format: functional, cell-based.
Series [11] is described as follows: Anticancer activity against rat Ad12-3Y1-W5 cells assessed as reduction in cell viability incubated for 3 days by MTT assay. It is filed as functional, cell-based. The settings on record: Ad12-3Y1-W5, 72 h.
Series [12] in a line: Anticancer activity against rat HR-3Y1-1 cells assessed as reduction in cell viability incubated for 3 days by MTT assay. The settings on record: HR-3Y1-1, 72 h. Format: functional, cell-based.
Series [13] in a line: Anticancer activity against rat SR-3Y1-3 cells assessed as reduction in cell viability incubated for 3 days by MTT assay. The settings on record: SR-3Y1-3, 72 h. It is filed as functional, cell-based.
A short description of series [14]: Anticancer activity against rat E1A-3Y1-1 cells assessed as reduction in cell viability incubated for 3 days by MTT assay. The settings on record: E1A-3Y1-1, 72 h. It is filed as functional, cell-based.
A short description of series [15]: Anticancer activity against rat SR-3Y1-1 cells assessed as reduction in cell viability incubated for 3 days by MTT assay. It is filed as functional, cell-based. To be noted: SR-3Y1-1, 72 h.
Series [16] is described as follows: Anticancer activity against human ACC-MESO-1 cells assessed as reduction in cell viability incubated for 72 hrs by WST-8 assay. Format: functional, cell-based. To be noted: ACC-MESO-1, 72 h.
Series [17] is described as follows: Inhibition of yeast mitochondrial F0F1-ATPase assessed as inhibition constant measured after 20 mins in presence of NADH and ATP by microplate reader analysis. Format: mitochondria, Saccharomyces cerevisiae, Mitochondria.
The subject of series [18] is P388. The series can be described thus: Anticancer activity against mouse P388 cells assessed as reduction in cell viability incubated for 96 hrs by MTT assay. To be noted: P388, 96 h. It is filed as functional, cell-based.
Series [19] relates to P388. Briefly: Anticancer activity against mouse P388 cells assessed as reduction in cell viability incubated for 48 hrs by sulforhodamine B (SRB) assay. It is filed as functional, cell-based. The settings on record: P388, 48 h. A general note: Sulforhodamine B stains cellular protein and so reports cell mass.
Another series deals with MCF7. Briefly: Anticancer activity against human MCF7 cells assessed as reduction in cell viability incubated for 48 hrs by sulforhodamine B (SRB) assay. Format: functional, cell-based. To be noted: MCF7, 48 h.
The next series concerns PANC-1. The series can be described thus: Anticancer activity against human PANC-1 cells assessed as reduction in cell viability by measuring ATP level incubated for 24 hrs by CellTiter-Glo assay. It is filed as functional, cell-based. To be noted: PANC-1, 24 h. (ATP-based viability assays read luminescence as a measure of living cells.)
The subject of series [20] is SK-OV-3. The series can be described thus: Antiproliferative activity against human SK-OV-3 cells assessed as decrease in cellular ATP content and measured after 2 days by CellTiter-Glo luminescent assay. It is filed as functional, cell-based. The settings on record: SK-OV-3, 48 h.
Another series relates to A549. Briefly: Antiproliferative activity against human A549 cells assessed as decrease in cellular ATP content and measured after 2 days by CellTiter-Glo luminescent assay. It is filed as functional, cell-based. The settings on record: A549, 48 h.
The test system of a further series is K562. Briefly: Antiproliferative activity against human K562 cells assessed as decrease in cellular ATP content and measured after 2 days by CellTiter-Glo luminescent assay. It is filed as functional, cell-based. To be noted: K562, 48 h.
In the next series the test system is U-937. The series can be described thus: Antiproliferative activity against human U-937 cells assessed as decrease in cellular ATP content and measured after 2 days by CellTiter-Glo luminescent assay. Format: functional, cell-based. The settings on record: U-937, 48 h.
Series [21] in a line: Inhibition of bovine heart mitochondrial F0F1-ATP synthase incubated for 15 mins by colorimetric assay. Format: mitochondria, Bos taurus, Mitochondria.
The next series relates to A498. Briefly: Antiproliferative activity against human A498 cells assessed as decrease in cellular ATP content and measured after 2 days by CellTiter-Glo luminescent assay. To be noted: A498, 48 h. Format: functional, cell-based.
Another series has as its system KB-V1. The series can be described thus: Antiproliferative activity against human KB-V1 cells assessed as decrease in cellular ATP content and measured after 2 days by CellTiter-Glo luminescent assay. It is filed as functional, cell-based. To be noted: KB-V1, 48 h.
Series [22] in a line: Cytotoxicity against mouse L929 cells assessed as reduction in cell viability. Format: toxicity, cell-based.
A short description of series [23]: Inhibition of yeast mitochondrial F0F1-ATPase incubated for 15 mins by colorimetric assay. Format: mitochondria, Saccharomyces cerevisiae, Mitochondria.
Another series relates to KB 3-1. Briefly: Antiproliferative activity against human KB-3-1 cells assessed as decrease in cellular ATP content and measured after 2 days by CellTiter-Glo luminescent assay. Format: functional, cell-based. The settings on record: KB 3-1, 48 h.

For `CC[C@H](C)[C@@H]1NC(=O)[C@H](NC(=O)[C@H](C)NC(=S)[C@H](C)NC(=S)[C@H](C)NC(=S)[C@H](C)NC(=S)[C@H](CCSC)NC(=S)[C@@H](NC(=O)C(C)(O)CC(C)=O)C(C)C)CS/C=C\NC(=O)[C@H](C(O)c2cn(C)c[n+]2C)NC(=O)[C@H](CC(C)C)NC(=O)[C@H](C)NC1=O` (some centres not stated), the IC50 (commonly the point on the concentration scale where inhibition reaches its midpoint) in series [1] was determined as 200 ng/mL; in series [2], 630 ng/mL; in [3], 32 ng/mL; with SK-OV-3 [4], 38 µM; in [5] it was 3.9 ng/mL; in series [6] it was 460 ng/mL. Besides, the IC50 in series [7] came to 3.9 ng/mL; in [8], 200 ng/mL; in series [9], 32 ng/mL; in [10], 3.9 ng/mL; in the series on Jurkat, 12.5 µM; in series [11] it was 3.9 ng/mL. Also, the IC50 in [12] was determined as 200 ng/mL; in series [13], 630 ng/mL; in series [14], 32 ng/mL; in series [15], 630 ng/mL; in series [16], 27.8 µM.

In the case of `COC[C@@H](C[C@H]1O[C@@](O)([C@@H]2OC(=O)/C(C)=C/C(C)=C/C(C)=C/[C@@H](C)[C@H](O[C@@H]3O[C@@H](C)[C@H](OC)[C@@H](O)[C@@H]3O)/C=C/C(C)=C/CC[C@H](O)[C@@H](OC)C[C@@H]2O)[C@H](C)[C@@H](O)[C@H]1C)O[C@H]1C[C@](C)(O)[C@@H](O[C@H]2C[C@@H](OC)[C@H](O)[C@@H](C)O2)[C@H](C)O1`, the Ki (usually a dissociation constant, usually derived from enzyme kinetics or from competition with a known ligand) in series [17] was determined as 17 µM.

With `CC/C(C)=C(\NC(=O)[C@@H](NC(=O)CC(=O)[C@@H](C)CC(C)C)[C@](C)(O)CC)C(=O)N[C@@H](C)C(=O)N/C(C(=O)N[C@@H](C(=O)N[C@@H](C(=O)N[C@@H](C(=O)N[C@H](C(=O)N/C(C(=O)N[C@H](C)C(=O)N[C@@H](C(=O)N[C@H](C(=O)NC(C(=O)N[C@H](CN(C)C)C(C)C)=C(C)C)C(C)C)C(C)C)=C(\C)CC)C(C)(C)O)C(C)(C)O)[C@@H](C)CC)C(C)C)=C(\C)CC`, the IC50 in the series on P388 [18] came to 0.00051 µM; with P388 [19] it was 0.01 µM; in the series on MCF7, 0.01 µM.

Take `CC[C@](C)(NC(=O)[C@H](CC(C)C)NC(=O)[C@H](C)NC(=O)C(C)(C)NC(=O)[C@@H]1CCCCN1C(=O)C(C)(C)NC(=O)C(C)(C)NC(=O)CNC(=O)CCNC(=O)[C@H](CC(C)C)NC(=O)C(C)(C)NC(=O)C(C)(C)NC(=O)[C@@H]1CCCCN1C(=O)C(C)(C)NC(=O)[C@@H]1CCCCN1C(C)=O)C(=O)N[C@@H](CC(C)C)C[N+]1=C2CCCN2CCC1` (Ac-[Pip][Aib][Pip][Aib][Aib]L[βAla]G[Aib][Aib][Pip][Aib]AL[Iva]-X4): the half-maximal inhibitory concentration (IC50) with PANC-1 came to 0.052 µM.

In the case of `CCC[C@H](O)[C@@H](C)C(=O)NC/C=C\C[C@@H](C)[C@@H](O)[C@H](C)[C@@H]1C/C=C\C[C@H](C)[C@H](O)Cc2cc(OC)cc(O)c2C(=O)O1`, the half-maximal inhibitory concentration (IC50) is 1 ng/mL (≈ 1.7 nM) in the series on SK-OV-3 [20]; 0.4 ng/mL (≈ 0.678 nM) with A549; 0.6 ng/mL (≈ 1.02 nM) in the series on K562; 0.1 ng/mL (≈ 0.17 nM) with U-937; 0.015 µM in series [21]; 0.4 ng/mL (≈ 0.678 nM) in the series with A498. In addition, the IC50 in the series with KB-V1 worked out at 0.6 ng/mL (≈ 1.02 nM); in series [22], 1.2 ng/mL (≈ 2.03 nM); in [23] it was 0.015 µM; in the series on KB 3-1, 0.3 ng/mL (≈ 0.509 nM).

For the origin of these results see ChEMBL document CHEMBL5230122, “Natural products and other inhibitors of F1FO ATP synthase” (Eur J Med Chem, 2020).
